≈ marks a conversion by molar mass, not a printed value.
Experiments:
[1] = tested on: Xanthomonas oryzae pv. oryzae; assay: microbe, parasite or virus in culture; type: cell-based; conditions: for inhibition at 100 µg/mL / inhibition at 200 µg/mL / EC50: Xanthomonas oryzae; for inhibition at 100 µg/mL: read-out: Inhibition rate, X. oryzae, 100 μg/mL, average of three replicates; for inhibition at 200 µg/mL: read-out: Inhibition rate, X. oryzae, 200 μg/mL, average of three replicates; for Inhibition rate: X. oryzae, 200 μg/mL, average of three replicates
Ralstonia solanacearum = assay: microbe, parasite or virus in culture; type: cell-based; conditions: Ralstonia solanacearum; for inhibition at 100 µg/mL / inhibition at 200 µg/mL: read-out: Inhibition rate; for EC50: R. solanacearum
[2] = tested on: Xanthomonas axonopodis pv. citri; assay: microbe, parasite or virus in culture; type: cell-based; conditions: Xanthomonas axonopodis; for inhibition at 100 µg/mL / inhibition at 200 µg/mL: read-out: Inhibition rate

Compound	inhibition at 100 µg/mL [1] [%]	inhibition at 200 µg/mL [1] [%]	inhibition at 100 µg/mL (Ralstonia solanacearum) [%]	inhibition at 200 µg/mL (Ralstonia solanacearum) [%]	inhibition at 100 µg/mL [2] [%]	inhibition at 200 µg/mL [2] [%]	melting point [°C]	Inhibition rate [1] [%]	EC50 [1] [µg/mL]	EC50 (Ralstonia solanacearum) [µg/mL]	EC50 [2] [µg/mL]
Cc1cc(Cl)ccc1OCc1nnc(S(=O)(=O)Cc2ccccc2)o1 [Compound 5I-13, 2-(Benzylsulfonyl)-5-((4-chloro-2-methylphenoxy)methyl)-1,3,4-oxadiazole]	13	33	8	15	0	7	144 to 145	–	–	–	–
O=S(=O)(Cc1ccccc1)c1nnc(COc2ccc(Cl)cc2Cl)o1 [Compound 5I-12, 2-(Benzylsulfonyl)-5-((2,4-dichlorophenoxy)methyl)-1,3,4-oxadiazole]	70	98	20	33	23	26	121 to 122	–	–	–	–
CS(=O)(=O)c1nnc(COc2ccc(Cl)cc2Cl)s1 [Compound 5II-4, 2-((2,4-Dichlorophenoxy)methyl)-5-(methylsulfonyl)-1,3,4-thiadiazole]	18	16	15	18	20	23	160 to 162	–	–	–	–
CCS(=O)(=O)c1nnc(COc2ccc(Cl)cc2Cl)o1 [Compound 5I-8, 2-((2,4-Dichlorophenoxy)methyl)-5-(ethylsulfonyl)-1,3,4-oxadiazole]	87	100	43	97	36	62	–	–	–	–	–
O=S(=O)(Cc1ccccc1)c1nnc(COc2ccccc2)o1 [Compound 5I-14, 2-(Benzylsulfonyl)-5-(phenoxymethyl)-1,3,4-oxadiazole]	78	95	37	69	53	76	95 to 96	–	–	–	–
O=S(=O)(Cc1ccccc1)c1nnc(COc2ccc(Br)cc2)o1 [Compound 5I-11, 2-(Benzylsulfonyl)-5-((4-bromophenoxy)methyl)-1,3,4-oxadiazole]	38	56	13	18	16	11	142 to 143	–	–	–	–
CS(=O)(=O)c1nnc(COc2ccc(Cl)cc2)s1 [Compound 5II-2, 2-((4-Chlorophenoxy)methyl)-5-(methylsulfonyl)-1,3,4-thiadiazole]	73	84 to 99	45	56	16	27	119 to 120	84	–	–	–
O=S(=O)(Cc1ccccc1)c1nnc(COc2ccc(F)cc2)s1 [Compound 5II-8, 2-(Benzylsulfonyl)-5-((4-fluorophenoxy)methyl)-1,3,4-thiadiazole]	8	24	10	30	21	24	132 to 134	–	–	–	–
CS(=O)(=O)c1nnc(COc2ccccc2)o1 [Compound 5I-6, 2-(Methylsulfonyl)-5-(phenoxymethyl)-1,3,4-oxadiazole]	100	100	100	100	57	88	–	–	1.86 ± 0.23 (≈ 7.32 µM)	13.6 ± 2.12 (≈ 53.3 µM)	85 ± 4.32 (≈ 334 µM)
O=S(=O)(Cc1ccccc1)c1nnc(COc2ccc(Cl)cc2)o1 [Compound 5I-10, 2-(Benzylsulfonyl)-5-((4-chlorophenoxy)methyl)-1,3,4-oxadiazole]	48	90	19	24	62	74	126 to 128	–	–	–	–
CCS(=O)(=O)c1nnc(COc2ccc(F)cc2)s1 [Compound 5II-6, 2-(Ethylsulfonyl)-5-((4-fluorophenoxy)methyl)-1,3,4-thiadiazole]	55	65	12	7	18	15	89 to 90	–	–	–	–
O=S(=O)(Cc1ccccc1)c1nnc(COc2ccc(Cl)cc2)s1 [Compound 5II-9, 2-(Benzylsulfonyl)-5-((4-chlorophenoxy)methyl)-1,3,4-thiadiazole]	14	19	18	17	23	14	140 to 141	–	–	–	–
Cc1cc(Cl)ccc1OCc1nnc(S(C)(=O)=O)o1 [Compound 5I-5, 2-((4-Chloro-2-methylphenoxy)methyl)-5-(methylsulfonyl)-1,3,4-oxadiazole]	100	100	100	100	54	100	–	–	1.67 ± 0.16 (≈ 5.52 µM)	14.9 ± 1.27 (≈ 49.3 µM)	96.8 ± 5.78 (≈ 320 µM)
Cc1cc(Cl)ccc1OCc1nnc(S(C)(=O)=O)s1 [Compound 5II-5, 2-((4-Chloro-2-methylphenoxy)methyl)-5-(methylsulfonyl)-1,3,4-thiadiazole]	16	42	8	9	24	25	160 to 161	–	–	–	–
Cc1cc(Cl)ccc1OCc1nnc(S(=O)(=O)Cc2ccccc2)s1 [Compound 5II-12, 2-(Benzylsulfonyl)-5-((4-chloro-2-methylphenoxy)methyl)-1,3,4-thiadiazole]	0	5	0	0	33	10	125 to 126	–	–	–	–
CCS(=O)(=O)c1nnc(COc2ccc(F)cc2)o1 [Compound 5I-7, 2-(Ethylsulfonyl)-5-((4-fluorophenoxy)methyl)-1,3,4-oxadiazole]	100	100	99	100	53	65	–	–	0.52 ± 0.16 (≈ 1.82 µM)	7.75 ± 1.01 (≈ 27.1 µM)	52.2 ± 2.14 (≈ 182 µM)
O=S(=O)(Cc1ccccc1)c1nnc(COc2ccc(Br)cc2)s1 [Compound 5II-10, 2-(Benzylsulfonyl)-5-((4-bromophenoxy)methyl)-1,3,4-thiadiazole]	0	10	1	11	8	5	147 to 148	–	–	–	–
O=S(=O)(Cc1ccccc1)c1nnc(COc2ccc(Cl)cc2Cl)s1 [Compound 5II-11, 2-(Benzylsulfonyl)-5-((2,4-dichlorophenoxy)methyl)-1,3,4-thiadiazole]	14	37	26	27	32	38	124 to 125	–	–	–	–
O=S(=O)(Cc1ccccc1)c1nnc(COc2ccc(F)cc2)o1 [Compound 5I-9, 2-(Benzylsulfonyl)-5-((4-fluorophenoxy)methyl)-1,3,4-oxadiazole]	100	100	25	33	50	72	94 to 96	–	–	–	–
CS(=O)(=O)c1nnc(COc2ccc(Br)cc2)o1 [Compound 5I-3, 2-((4-Bromophenoxy)methyl)-5-(methylsulfonyl)-1,3,4-oxadiazole]	100	100	100	100	90	91	97 to 99	–	1.67 ± 0.22 (≈ 5.01 µM)	19.6 ± 0.98 (≈ 58.9 µM)	24.9 ± 2.52 (≈ 74.7 µM)
CS(=O)(=O)c1nnc(COc2ccc(Br)cc2)s1 [Compound 5II-3, 2-((4-Bromophenoxy)methyl)-5-(methylsulfonyl)-1,3,4-thiadiazole]	28	30	7	26	18	25	114 to 115	–	–	–	–
CCS(=O)(=O)c1nnc(COc2ccc(Cl)cc2Cl)s1 [Compound 5II-7, 2-((2,4-Dichlorophenoxy)methyl)-5-(ethylsulfonyl)-1,3,4-thiadiazole]	13	20	0	0	6	32	127 to 128	–	–	–	–
CS(=O)(=O)c1nnc(COc2ccc(F)cc2)s1 [Compound 5II-1, 2-((4-Fluorophenoxy)methyl)-5-(methylsulfonyl)-1,3,4-thiadiazole]	92	84 to 99	49	50	36	40	107 to 109	99	–	–	–

From publication PMC6155626 (Molecules : A Journal of Synthetic Chemistry and Natural …, 2016)
